One data set can be described thus: Plasma pharmacokinetics. The class given is in vivo, BALB/c mice. The note with it: for AUC / Cmax / half-life: female, BALB/c, mouse, plasma; for half-life: 10 mg/kg. The protocol:
Plasma pharmacokinetic parameters of ICL-CCIC-0019 were established in female BALB/c mice aged 6–8 weeks (Harlan). Mice were intraperitoneally (i.p.) or perorally (p.o.) administered a single dose of 10 mg/kg and blood collected by cardiac puncture after 5, 15, 30 minutes and 1, 2, 4, 6 and 24 h. For tissue pharmacokinetic studies, HCT116 xenograft bearing mice were administered 10 mg/kg ICL-CCIC-0019 i.p. and blood collected after 5 minutes, 2, 6 and 24 h. Plasma was obtained by centrifugation at 1000 × g for 10 minutes. Samples were snap-frozen and stored at −80°C prior to analysis. Analysis was carried out by Cyprotex Inc. using liquid chromatography–mass spectrometry (LC–MS). For analysis of plasma metabolites, 2-hour samples of tissue pharmacokinetic studies were pooled.

The subject of another data set is HCT116 cells. Kind of data set: Antiproliferative activity (SRB). Type of data set: cell-based. Conditions: Homo sapiens, HCT-116. The protocol: Enzymatic kinase activity, [^3H]choline to [^3H]PCho conversion and growth inhibition assays was conducted as previously described. [^3H]choline incorporation into soluble and lipid fractions was determined by a pulse-chase experiment. HCT116 cells were seeded at a density of 3 × 10^5 cell per well into 12-well plates and incubated overnight. Cells were treated with 1 or 10 μM ICL-CCIC-0019 for 1 h and pulsed in presence of inhibitor with 18.5 kBq/mL [^3H]choline chloride in 500 μL for 1 additional h. Cells were briefly rinsed with RPMI and incubated with fresh, non-radioactive medium for 6 h. Metabolites were extracted as described elsewhere, but additionally the radioactivity of the choline-containing and chloroform (lipid-containing) fractions was measured. Uptake of radiolabeled metabolite-tracers was measured as described elsewhere. Antiproliferative activity was measured after 72 h continuous exposure to inhibitors by sulforhodamine B (SRB) assay as described elsewhere. Apoptosis was determined using Caspase 3/7 Glo assay (Promega) according to the manufacturer's instructions.

Where two headings read alike, the source gives them in different places.

As a reminder, the AUC is concentration integrated over time. A lower AUC goes with less exposure. The Cmax is the maximum level reached in the sampled fluid or tissue. Broadly, the GI50 is the concentration at which growth is held to half of that of the control. Low readings indicate more potent growth inhibition, high ones less potent growth inhibition. Consider `CN(C)c1cc[n+](CCCCCCCCCCCC[n+]2ccc(N(C)C)cc2)cc1` [ICL-CCIC-0019], for which the oral bioavailability result in the data set “Plasma pharmacokinetics” (10 mg/kg p.o.) is on record as “limited”. The AUC in the data set “Plasma pharmacokinetics” (ip, 10 mg/kg I.P.) is 1320 nM·h; in the data set “Plasma pharmacokinetics” (po, 10 mg/kg P.O) it was 50 nM·h. Moreover, the Cmax came to 5.3 µM in “Plasma pharmacokinetics” (ip, 10 mg/kg I.P.) and 0.036 µM in the data set “Plasma pharmacokinetics” (po, 10 mg/kg P.O). Besides, the half-life is 0.0967 h in “Plasma pharmacokinetics” (ip, 10 mg/kg I.P., read-out: t1/2 (1)); 11 h in the data set “Plasma pharmacokinetics” (ip, 10 mg/kg I.P., read-out: t1/2 (2) (converted)); 0.167 h in “Plasma pharmacokinetics” (po, 10 mg/kg P.O, read-out: t1/2 (1)); 56 h in the data set “Plasma pharmacokinetics” (po, 10 mg/kg P.O, read-out: t1/2 (2) (converted)). Besides, it took 0.38 µM to inhibit growth in the data set with HCT116 cells by half (GI50).

These data come from publication PMC5095062, “The novel choline kinase inhibitor ICL-CCIC-0019 reprograms cellular metabolism and inhibits cancer cell growth” (Oncotarget, 2016).
